The source of these data is article PMC3260180, “FRET-Based Detection of M1 Muscarinic Acetylcholine Receptor Activation by Orthosteric and Allosteric Agonists” (PLoS ONE, 2012).

Bounds are passed on as bounds.

In experiment [1] the target is T1, M1-cam5 mAChR (Mus musculus, UniProt P12657, INS361[…]). Nature of the experiment: FRET measurements (FEYFP/FECFP) in HEK293-M1-cam5 cells. It counts as cell-based. The arrangement: addition of the EYFP^F46L to the C-terminus of full length M1 mAChR; expressed in transfected cells; host or cells: HEK293 cells stably expressing M1-cam5 (HEK293-M1-cam5). The following applies: for maximal FRET decrease: maximally effective concentration (MCh 300 µM, arecoline 300 µM, pilocarpine 300 µM, 77-LH-28-1 10 µM, AC-42 30 µM), room temperature. The procedure:
The experiments were performed at room temperature.
We also assessed the kinetics of MCh-mediated receptor conformational change with time-resolved determinations of the FRET signal recorded from single cells on activation of M1-cam5 mAChR with various concentrations of MCh.

Experiment [2] concerns the target T2, M1-cam5 AChR (Mus musculus, UniProt P12657, INS361[…]).
T2 construct: addition of the EYFP^F46L to the C-terminus of full length M1 mAChR; expressed in transfected cells; host or cells: HEK293 cells stably expressing M1-cam5 (HEK293-M1-cam5)
Nature of the experiment: [3H]NMS competition binding in intact HEK293-M1-cam5 cell monolayers. The following applies: [3H]NMS (~0.3 nM) competition, agonists 4°C for 4 h, antagonists 37°C for 45 min, mean ± s.e.m. As for the experimental part: Briefly, HEK293-M1-cam5 cells were seeded at a density of 75,000 cells/well in 24-well plates. […] […] After cell solubilization, SafeFluor scintillation fluid was added, and samples were counted on a scintillation counter.

Experiment [3] addresses T1, M1-cam5 mAChR. Nature of the experiment: Receptor internalization by confocal microscopy in HEK293-M1-cam5 cells. In kind it is cell-based. Details: addition of the EYFP^F46L to the C-terminus of full length M1 mAChR; expressed in transfected cells; host or cells: HEK293 cells stably expressing M1-cam5 (HEK293-M1-cam5). As for the experimental part:
Cells were seeded on coverslips coated with 100 µg/mL poly-D-lysine in PBS. When 70–80% confluency was reached, in some instances the cells were treated with various concentrations of agonists at 37°C and fixed with 4% paraformaldehyde. After a 5 min wash with PBS, the slides were mounted with Slowfade Gold/DAPI (Invitrogen, UK). The slides were examined using an Olympus FV500 confocal microscope, ECFPc and EYFP^F46L were excited via the 458 nm and 515 nm line of the argon laser and emissions were then collected at 480–495 nm and 535–565 nm, respectively. Optical sections (0.5 µm) were taken, and representative sections corresponding to the middle of the cells are presented. For each treatment, between 20 and 30 individual cells in three random fields of view were selected and examined. Fluorescence intensity of specific regions of interest (longitudinal axis) was quantified by using the Measure function of Image J software developed at the National Institutes of Health (http://rsb.info.nih.gov/ij/), as previously described. Briefly, relative quantification of intracellular (internalized) M1-cam5 was determined by measuring the amount of total fluorescence along the longitudinal axis corresponding to the intracellular space (average 4–18 ìm) excluding nucleus. Intracellular fluorescence in cells not treated with the agonist was considered to be basal fluorescence (assigned the value of 1). All other data are normalized to this basal fluorescence level.
Figure 4 Internalization characteristics of the M1-cam5 mAChR stably expressed in HEK293 cells. HEK293-M1-cam5 cells were treated with various concentration of MCh for 45 min (to assess the concentration-dependency of receptor internalization), or with MCh (300 µM) for 0–60 min (to assess the time-dependency of receptor internalization). Cellular distributions of M1-cam5 mAChR were monitored by confocal microscopy. For quantification of intracellular fluorescence at least […] of view were examined as described in the Methods section. […]

For experiment [4], the target named is T1, M1-cam5 mAChR. The experiment in a line: Total [3H]inositol phosphate accumulation in HEK293-M1-cam5 cells. The following applies: in presence of Li+ (10 mM). The arrangement: addition of the EYFP^F46L to the C-terminus of full length M1 mAChR; expressed in transfected cells; host or cells: HEK293 cells stably expressing M1-cam5 (HEK293-M1-cam5). It counts as cell-based. The procedure:
(§1) HEK293-M1-cam5 and HEK293 cells were seeded at 100,000 cells/well in 24-well plates and incubated in fresh medium containing 2.5 µCi/mL [^3H]inositol for 48 h. The assay was performed as previously described.
As an index of PLC activation, agonist-stimulated accumulation of total [^3H]IPx was assessed in the presence of Li^+ (10 mM). […] On removal of agonist, the eGFP-PH biosensor translocated back to the plasma membrane.

For experiment [5], the target named is T3, M1-cam5 (Mus musculus, UniProt P12657, INS361[…]).
T3 construct: addition of the EYFP^F46L to the C-terminus of full length M1 mAChR; expressed in transfected cells; host or cells: HEK293 cells stably expressing M1-cam5 (HEK293-M1-cam5)
Nature of the experiment: eGFP-PH biosensor translocation (phosphoinositide turnover) in HEK293-M1-cam5 cells. It counts as cell-based. The conditions noted are these: 10 µM for 60 s.

For experiment [6], the target named is M1-3ic-ECFPc and M1-cterm-EYFP^F46L (Mus musculus, UniProt P12657, INS361[…]). The experiment in a line: FRET control with coexpressed M1-3ic-ECFPc and M1-cterm-EYFPF46L in HEK293 cells. The following applies: 300 µM.
Description: Briefly, HEK293 cells grown on coverslips were mounted on a Nikon Eclipse TE2000-S inverted microscope (Nikon) using an “Attofluor” cell chamber (Molecular Probes, Leiden, The Netherlands) and continuously superfused with HBS (150 mM NaCl, 10 mM HEPES, 10 mM glucose, 2.5 mM KCl, 4 mM CaCl2, 2 mM MgCl2, pH 7.4). Cells were observed using an oil immersion 63× lens, a polychrome V (Till Photonics, Gräfelfing, Germany) for excitation, and a dual emission photometric system. In order to minimize photobleaching, illumination time was set to 10–40 ms, applied with a frequency of 10 Hz. Fluorescence was measured at 535±15 nm (F535) and 480±20 nm (F480) (beam splitter DCLP 505 nm, Chroma Technology, Rockingham, VT, USA) on excitation at 436±10 nm (beam splitter DCLP 460 nm, Chroma Technology). The signals were detected by avalanche photodiodes and digitized using an analog/digital converter (Digidata 1322A, Axon Instruments, Union City, CA, USA) and stored on a PC using Axoscope software (Axon Instruments). The experiments were performed at room temperature.
FRET was assessed using the ratio of normalized EYFP^F46L/ECFPc fluorescence intensities.
HEK-293 cells were transiently transfected with either (A) M1-cam5 or (B) two separate plasmids, one encoding M1 with a C-terminal YFP^F46L tag and the other encoding M1 with an ECFPc tag at the same third intracellular loop location as M1-cam5. […]
The target in experiment [7] is T1, M1-cam5 mAChR. The conditions noted are these: 1–300 µM for 5 min, serum-starved HEK293-M1-cam5 cells.
Description: Proteins were visualized using ECL reagent from GE Healthcare (Chalfont St. Giles, UK).
Phosphoinositide turnover was assessed by monitoring the translocation of the eGFP-PH probe from the plasma membrane to the cytoplasm on addition of MCh (10 µM) for 60 s, followed by washout.
In experiment [8] the test system is M3 mAChRs. The experiment in a line: Total [3H]inositol phosphate accumulation in wild-type HEK293 cells. In kind it is cell-based, human. The conditions noted are these: Li+ (10 mM). As for the experimental part: as §1
As an index of PLC activation, agonist-stimulated accumulation of total [^3H]IPx was assessed in the presence of Li^+ (10 mM).

For the compound `CN1[C@@H]2CC[C@H]1C[C@@H](OC(=O)C(CO)c1ccccc1)C2` (stereo partly drawn) [atropine], in experiment [1], the “effect alone on basal M1-cam5 FRET signal” value is listed as “no effect”, the “prevention of agonist-induced FRET change by pre-addition” value is listed as “completely prevented” and the “reversal of agonist-induced FRET change” value is on record as “reversed”.
For the compound `CCCCC1CCN(CCCC(=O)c2ccccc2C)CC1` [AC-42], in experiment [2], the “pK B (apparent binding affinity, −log K B)” value is 5.11±0.11. Moreover, the “M1-cam5 mAChR internalization (endocytosis)” value (shortened to “M1-cam5 mAChR internalization”) in experiment [3] is recorded as “resulted in receptor endocytosis”. The “maximal FRET decrease” value in experiment [1] was 5.1±0.3%.
Take `C[N+](C)(C)CC#CCN1CCCC1=O` [oxo-M, oxotremorine-M]: the “pK B (apparent binding affinity, −log K B)” value in experiment [2] is on record as 5.94±0.10. In experiment [3], the “M1-cam5 mAChR internalization” value was “resulted in receptor endocytosis”.
`CCCCC1CCN(CCCN2C(=O)CCc3ccccc32)CC1` [77-LH-28-1]: the “pK B (apparent binding affinity, −log K B)” value in experiment [2] came to 6.17±0.12. Further, in experiment [1], the “maximal FRET decrease” value is 6.4±0.4%.
With `CC(=O)OC(C)C[N+](C)(C)C` (stereo not drawn) [MCh, methacholine], in experiment [4] (basal 3,781±1,792), the “[3H]IPx accumulation, maximal stimulation” value was 41,954±1,030 d.p.m. mg^−1 protein. In addition, in experiment [4] (over basal), the “increase in [3H]IPx accumulation, maximal stimulation” value came to 11 fold. Further, the “translocation of the eGFP-PH biosensor from the plasma membrane to the cytoplasm” value in experiment [5] is “detectable translocation”. Further, the “FRET response in cells coexpressing singly tagged receptors” value in experiment [6] is listed as “no FRET response”. The “M1-cam5 mAChR internalization” value in experiment [3] was “internalized in response to MCh in a concentration- and time-dependent manner”. The ERK1/2 phosphorylation result in experiment [7] is “rapid increase”. The “EC50 right-shift of [3H]IPx accumulation relative to HEK293-M1-cam5 cells” value in experiment [8] was more than 10 fold. Further, the “maximal FRET decrease” value in experiment [1] is reported as 9.8±0.4%.
